Laboratory results reported in patent US20230227449A1, “AMIDOPYRIMIDONE DERIVATIVES” (Hoffmann-La Roche Inc., priority 2020, published 2023).

target: Recombinant human Mat2a (Homo sapiens, UniProt P31153); test: Determination of Mat2A activity (384 well absorbance-based assay, Biomol Green); type: biochemical; conditions: 12.5 nM Mat2A, 100 μM ATP and Methionine, 2% DMSO, 120 minutes at RT, absorbance at 635 nm
Procedure: Determination of Mat2A activity
Measurement of Mat2A inhibition is performed in 384 well format absorbance-based assay. Recombinant human Mat2a (12.5 nM) and serial diluted compounds in DMSO (range of concentrations from […] to 508 pM) or controls (DMSO) are incubated for 15 minutes at room temperature (RT) in assay buffer containing 50 mM HEPES pH 7.5, 50 mM KCl, 50 mM MgCl2, 0.01% Tween 20 and 10 mM DTT. The reaction is initiated by the addition of the combined substrates ATP and Methionine, each at a final concentration of 100 μM. Final assay condition are 12.5 nM Mat2A, 100 μM ATP and Methionine Substrates and 2% DMSO. After 120 minutes of incubation at RT, the reaction is stopped by the addition of Biomol Green. The absorbance signal is measured at λ=635 nm with a multiplate reader (BMG Pherastar reader or equivalent) after 30 min of equilibration at RT.

Sequence of Recombinant human Mat2a (P31153 whole entry): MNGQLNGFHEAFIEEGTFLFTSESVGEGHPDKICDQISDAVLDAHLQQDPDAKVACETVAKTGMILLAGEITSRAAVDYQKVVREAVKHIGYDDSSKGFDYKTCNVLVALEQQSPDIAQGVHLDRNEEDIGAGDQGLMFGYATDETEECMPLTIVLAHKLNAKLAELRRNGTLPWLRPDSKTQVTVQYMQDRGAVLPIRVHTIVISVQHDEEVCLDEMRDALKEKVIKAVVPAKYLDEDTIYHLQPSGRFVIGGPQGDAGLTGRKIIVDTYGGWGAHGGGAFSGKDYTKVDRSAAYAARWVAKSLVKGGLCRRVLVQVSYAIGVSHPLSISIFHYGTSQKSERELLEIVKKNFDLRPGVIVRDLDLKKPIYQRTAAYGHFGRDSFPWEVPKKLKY

`Cc1ncccc1-n1c(=O)nc(N)c2ccc(C3CCCC3)nc21` [Example 56, 4-amino-7-cyclopentyl-1-(2-methyl-3-pyridyl)pyrido[2,3-d]pyrimidin-2-one] and `Nc1nc(=O)n(-c2cccnc2Cl)c2nc(C3CC3)ccc12` [Example 85, 4-amino-1-(2-chloropyridin-3-yl)-7-cyclopropylpyrido[2,3-d]pyrimidin-2(1H)-one] cannot be ordered by IC50: < 13 nM for the first, < 13 nM for the second.

Compared with `Nc1nc(=O)n([C@@H]2CCCOC2)c2cc(C(F)(F)F)ccc12` [Example 46, (R)-4-amino-1-(tetrahydro-2H-pyran-3-yl)-7-(trifluoromethyl)quinazolin-2(1H)-one], `Nc1nc(=O)n(C2CCCOC2)c2nc(C3CC3)ccc12` (centres unmarked) [Example 12, 4-amino-7-cyclopropyl-1-(oxan-3-yl)pyrido[2,3-d]pyrimidin-2-one] is lower in IC50: 31 nM for the first, < 13 nM for the second.

`COc1cccc(-n2c(=O)nc(N)c3ccc(C4CC4)nc32)n1` [Example 72, 4-amino-7-cyclopropyl-1-(6-methoxypyridin-2-yl)pyrido[2,3-d]pyrimidin-2(1H)-one] and `Nc1nc(=O)n(-c2cccc(OC(F)F)n2)c2nc(C3CC3)ccc12` [Example 108, 4-amino-7-cyclopropyl-1-(6-(difluoromethoxy)pyridin-2-yl)pyrido[2,3-d]pyrimidin-2 (1H)-one] cannot be ordered by IC50: < 13 nM for the first, < 13 nM for the second.

`Cc1ccccc1-n1c(=O)nc(N)c2ccc(OC(F)F)cc21` [Example 144, 4-amino-7-(difluoromethoxy)-1-(o-tolyl)quinazolin-2 (1H)-one] and `Cc1ccccc1-n1c(=O)nc(N)c2ccc(C3CC3)cc21` [Example 8, 4-amino-7-cyclopropyl-1-(o-tolyl)quinazolin-2 (1H)-one] cannot be ordered by IC50: < 13 nM for the first, < 13 nM for the second.

First: Cc1ncccc1-n1c(=O)nc(O)c2ccc(C3CC3)cc21 [Example 98, 7-cyclopropyl-1-(2-methylpyridin-3-yl)quinazoline-2,4-dione]
Second: Cc1ncccc1-n1c(=O)nc(N)c2ccc(OC3CC3)cc21 [Example 31, 4-amino-7-cyclopropyloxy-1-(2-methylpyridin-3-yl)quinazolin-2-one]
The IC50 of the first is 11-fold higher: 200 nM for the first, 18 nM for the second.

Going from `COc1ccccc1-c1c(=O)nc(N)n2ccc(C(F)(F)F)cc12` [Example 92, 1-amino-4-(2-methoxyphenyl)-6-(trifluoromethyl)-3H-pyrido[1,2-c]pyrimidin-3-one] to `Nc1nc(=O)n(-c2ccccc2C(F)(F)F)c2nc(C3CC3)ccc12` [Example 132, 4-amino-7-cyclopropyl-1-(2-(trifluoromethyl)phenyl)pyrido[2,3-d]pyrimidin-2 (1H)-one], the IC50 falls from 37 nM to < 13 nM. The second is the more potent here.

First: Cc1ccccc1-n1c(=O)nc(N)c2c(C(N)=O)cc(C3CC3)nc21 [Example 94, 4-amino-7-cyclopropyl-2-oxo-1-(o-tolyl)-1,2-dihydropyrido[2,3-d]pyrimidine-5-carboxamide]
Second: Cc1c(F)cccc1-n1c(=O)nc(N)c2ccc(C3CC3)nc21 (single isomer, unassigned) [Example 103, (+)-4-amino-7-cyclopropyl-1-(3-fluoro-2-methylphenyl)pyrido[2,3-d]pyrimidin-2 (1H)-one]
The IC50 of the first is higher: 74 nM for the first, < 13 nM for the second.

`Cc1ccncc1-n1c(=O)nc(N)c2ccc(C3CC3)nc21` [Example 47, 4-amino-7-cyclopropyl-1-(4-methylpyridin-3-yl)pyrido[2,3-d]pyrimidin-2(1H)-one] and `N#Cc1ncccc1-n1c(=O)nc(N)c2ccc(C3CC3)nc21` [Example 11, 3-(4-amino-7-cyclopropyl-2-oxopyrido[2,3-d]pyrimidin-1(2H)-yl)picolinonitrile] cannot be ordered by IC50: < 13 nM for the first, < 13 nM for the second.

Going from `CC(C1CCCO1)n1c(=O)nc(N)c2ccc(C3CC3)nc21` (centres unmarked) [Example 21, 4-amino-7-cyclopropyl-1-(1-(tetrahydrofuran-2-yl)ethyl)pyrido[2,3-d]pyrimidin-2(1H)-one] to `Nc1nc(=O)n([C@@H]2CCCOC2)c2nc(C3CC3)ccc12` [Example 26, 4-amino-7-cyclopropyl-1-[(3R)-oxan-3-yl]pyrido[2,3-d]pyrimidin-2-one], the IC50 falls from 86 nM to < 13 nM.

`Cc1ncccc1-n1c(=O)nc(N)c2cc(F)c(C3CC3)nc21` [Example 10, 4-amino-7-cyclopropyl-6-fluoro-1-(2-methylpyridin-3-yl)pyrido[2,3-d]pyrimidin-2(1H)-one] and `Cc1ncccc1-n1c(=O)nc(N)c2cc(Cl)c(C3CC3)nc21` [Example 18, 4-amino-6-chloro-7-cyclopropyl-1-(2-methylpyridin-3-yl)pyrido[2,3-d]pyrimidin-2(1H)-one] cannot be ordered by IC50: < 13 nM for the first, < 13 nM for the second.

`Nc1nc(=O)n(-c2cccc3[nH]ccc23)c2nc(C3CC3)ccc12` [Example 164, 4-amino-7-cyclopropyl-1-(1H-indol-4-yl)pyrido[2,3-d]pyrimidin-2-one] and `Nc1nc(=O)n(-c2cccc(F)c2F)c2nc(C3CC3)ccc12` [Example 73, 4-amino-7-cyclopropyl-1-(2,3-difluorophenyl)pyrido[2,3-d]pyrimidin-2(1H)-one] cannot be ordered by IC50: < 13 nM for the first, < 13 nM for the second.

`Nc1nc(=O)n([C@@H]2CCCCOC2)c2nc(C3CC3)ccc12` [Example 124, (R)-4-amino-7-cyclopropyl-1-(oxepan-3-yl)pyrido[2,3-d]pyrimidin-2 (1H)-one] and `Nc1nc(=O)n(C2CCCOC23CC3)c2nc(C3CC3)ccc12` (centres unmarked) [Example 88, 4-amino-7-cyclopropyl-1-(4-oxaspiro[2.5]octan-8-yl)pyrido[2,3-d]pyrimidin-2(1H)-one] cannot be ordered by IC50: < 13 nM for the first, < 13 nM for the second.

Compared with `C[C@@H]1OCC[C@@H]1n1c(=O)nc(N)c2ccc(C3CC3)nc21` (relative stereo) [Example 89, 4-amino-7-cyclopropyl-1-((cis)-2-methyltetrahydrofuran-3-yl)pyrido[2,3-d]pyrimidin-2(1H)-one], `Nc1nc(=O)n(-c2ccccc2)c2nc(C3CC3)ccc12` [Example 74, 4-amino-7-cyclopropyl-1-phenylpyrido[2,3-d]pyrimidin-2(1H)-one] is 3.3-fold lower in IC50: 53 nM for the first, 16 nM for the second. The second is the more potent here.

First: Nc1nc(=O)n(-c2ccc(F)cc2Cl)c2nc(C3CC3)ccc12 [Example 155, 4-amino-1-(2-chloro-4-fluorophenyl)-7-cyclopropylpyrido[2,3-d]pyrimidin-2 (1H)-one]
Second: Nc1nc(=O)n(-c2cccc(Cl)c2F)c2nc(C3CC3)ccc12 [Example 161, 4-amino-1-(3-chloro-2-fluorophenyl)-7-cyclopropylpyrido[2,3-d]pyrimidin-2-one]
The IC50 of the first is higher: 16 nM for the first, < 13 nM for the second.

Compared with `COc1c(C#N)cccc1-n1c(=O)nc(N)c2ccc(C3CC3)nc21` [Example 19, 3-(4-amino-7-cyclopropyl-2-oxopyrido[2,3-d]pyrimidin-1(2H)-yl)-2-methoxybenzonitrile], `Cc1c(C#N)cccc1-n1c(=O)nc(N)c2ccc(C3CC3)nc21` (single isomer, unassigned) [Example 146, (−)-3-(4-amino-7-cyclopropyl-2-oxopyrido[2,3-d]pyrimidin-1 (2H)-yl)-2-methylbenzonitrile] is higher in IC50: < 13 nM for the first, 58 nM for the second.

`Cc1c(F)cccc1-n1c(=O)nc(N)c2ccc(C3CC3)cc21` [Example 106, 4-amino-7-cyclopropyl-1-(3-fluoro-2-methylphenyl)quinazolin-2-one] and `Cc1c(F)cccc1-n1c(=O)nc(N)c2ccc(C(F)(F)F)nc21` [Example 165, 4-amino-1-(3-fluoro-2-methylphenyl)-7-(trifluoromethyl)pyrido[2,3-d]pyrimidin-2 (1H)-one] cannot be ordered by IC50: < 13 nM for the first, < 13 nM for the second.

Going from `Nc1nc(=O)n(C2CCCOC23CC3)c2cc(OC(F)F)ccc12` (centres unmarked) [Example 150, 4-amino-7-(difluoromethoxy)-1-(4-oxaspiro[2.5]octan-8-yl)quinazolin-2 (1H)-one] to `Nc1nc(=O)n(-c2cccc3c2CCO3)c2cc(OC(F)(F)F)ccc12` [Example 160, 4-amino-1-(2,3-dihydro-1-benzofuran-4-yl)-7-(trifluoromethoxy)quinazolin-2-one], the IC50 falls from 130 nM to 18 nM (7.2-fold).

Compared with `Cc1ncccc1-n1c(=O)nc(N)c2ccc(C3=COCC3)nc21` [Example 41, 4-amino-7-(4,5-dihydrofuran-3-yl)-1-(2-methylpyridin-3-yl)pyrido[2,3-d]pyrimidin-2 (1H)-one], `Cc1ncccc1-n1c(=O)nc(N)c2ccc(C(C)C)nc21` [Example 16, 4-amino-1-(2-methylpyridin-3-yl)-7-propan-2-ylpyrido[2,3-d]pyrimidin-2-one] is lower in IC50: 45 nM for the first, < 13 nM for the second. The second is the more potent here.

First: Cc1c(C#N)cccc1-n1c(=O)nc(N)c2ccc(OC(F)(F)F)cc21 [Example 158, 3-[4-amino-2-oxo-7-(trifluoromethoxy)quinazolin-1-yl]-2-methylbenzonitrile]
Second: Cc1c(C#N)cccc1-n1c(=O)nc(N)c2ccc(C(F)(F)F)nc21 [Example 77, 3-(4-amino-2-oxo-7-(trifluoromethyl)pyrido[2,3-d]pyrimidin-1(2H)-yl)-2-methylbenzonitrile]
The IC50 of the first is higher: 25 nM for the first, < 13 nM for the second.

Going from `Nc1nc(=O)n(-c2c(F)cccc2F)c2nc(C3CC3)ccc12` [Example 78, 4-amino-7-cyclopropyl-1-(2,6-difluorophenyl)pyrido[2,3-d]pyrimidin-2(1H)-one] to `COc1c(C#N)cccc1-n1c(=O)nc(N)c2cc(Cl)c(C3CC3)nc21` [Example 65, 3-(4-amino-6-chloro-7-cyclopropyl-2-oxopyrido[2,3-d]pyrimidin-1(2H)-yl)-2-methoxybenzonitrile], the IC50 rises from < 13 nM to 18 nM.

For `Cc1ncsc1-n1c(=O)nc(N)c2ccc(N3C4CCC3CC4)nc21` [Example 90, 4-amino-7-(7-azabicyclo[2.2.1]heptan-7-yl)-1-(4-methylthiazol-5-yl)pyrido[2,3-d]pyrimidin-2-one], the IC50 was 13 nM.
